In ChEMBL document CHEMBL1132180, “Synthesis, pharmacological and biophysical characterization, and membrane-interaction QSAR analysis of cationic amphiphilic model compounds” (J Med Chem, 1999):

Assays:
[1] = organism: Cavia porcellus
Description: Elevation of the threshold alternating current to induce arrhythmia in isolated guinea pig heart.

[2] = physchem; details: octanol/water
Description: Partition coefficient (logP) (HPLC)

[3] = Drug induced phase transition temperature with DPPA liposome.; type: functional
[4] = organism: Bos taurus; assay: Concentration at which Ca+ binding to phosphatidylserine monolayers is reduced to 50% of control; type: functional
[5] = physchem
Description: Dissociation constant (pKa)

[6] = organism: Bos taurus; assay: Concentration at which Ca+ binding to phosphatidylserine monolayers from bovine brain is reduced to 50% of control; type: functional
[7] = organism: Cavia porcellus; assay: Concentration required to elevate the threshold of alternating current to induce arrhythmia in isolated guinea pig heart by 50%; Vl = Very low activity; type: functional
[8] = organism: Cavia porcellus; assay: Concentration required to elevate the threshold of alternating current to induce arrhythmia in isolated guinea pig heart by 50%; Vl = very low activity; type: functional
[9] = organism: Cavia porcellus; assay: Concentration required to elevate the threshold of alternating current to induce arrhythmia in isolated guinea pig heart by 50%; VL = Very low activity; type: functional

SMILES | logP [2] | Log IC50 [4] [uM] | pKa [5] | Log IC50 [6] [uM] | Log AC50 [1] [uM] | Tt [3] [k] | Log AC50 [7] | Log AC50 [8] | Log AC50 [9]
CN(C)CCCc1ccc(O)cc1.Cl | 0.35 | 2.72 |  |  | 3.29 | 314 |  |  | 
CN(C)CCCc1ccc(N)cc1.Cl | 0.12 |  | 10.9 |  | 3 |  |  |  | 
CN(C)CCC(c1ccccc1)c1ccccc1.Cl | 2.76 | 4.85 | 10 |  | 4.37 | 308 |  |  | 
CN(C)CCC(c1ccccc1)c1ccc(-c2ccccc2)cc1 (centres undefined) | 3.36 |  | 9.85 |  |  | 294 |  |  | 
CN(C)CCCc1ccc(Br)cc1 | 2.37 |  | 10.6 |  |  |  |  |  | 
CN(C)CCCc1ccc(Cl)cc1.Cl | 2.21 |  | 10.6 | 3.85 | 4.31 | 302 |  |  | 
CN(C)CCCc1ccccc1.Cl | 1.5 | 3 | 11 |  | 3.55 | 3.8 |  |  | 
COc1ccc(CCCN(C)C)cc1Cl.Cl | 1.92 |  | 10.8 |  | 4.44 |  |  |  | 
C[N+](C)(C)CCCc1ccccc1.[Cl-] | 0.44 | 3.4 |  |  |  | 307 | Very low activity |  | 
CN(C)CCCc1ccc(O)c(Cl)c1.Cl | 0.97 |  |  |  | 3.82 | 294 |  |  | 
CN(C)CCCc1ccc(C(C)(C)C)cc1.Cl | 2.96 | 5.4 | 10 |  | 4.52 | 297 |  |  | 
CCCc1ccc(CCCN(C)C)cc1.Cl | 2.89 |  | 10.5 |  | 4.85 | 295 |  |  | 
CN(C)CCCc1ccc([N+](=O)[O-])cc1.Cl | 1.5 | 4.15 | 10.7 |  |  | 307 |  | Very low activity | 
CN(C)CCCc1cccnc1.Cl | 0.57 | 3.6 | 10.7 |  |  |  |  |  | Very low activity
CC(C)c1ccc(CCCN(C)C)cc1.Cl | 2.75 |  | 10.5 |  | 4.22 | 299 |  |  | 
CN(C)CC(Cc1ccccc1)c1ccccc1.Cl (centres undefined) | 2.59 |  | 9.93 |  | 4.13 | 309 |  |  | 

Continued, in another order:

logP [2] | Log IC50 [4] [uM] | pKa [5] | Log IC50 [6] [uM] | SMILES | Log AC50 [1] [uM] | Tt [3] [k] | Log AC50 [7] | Log AC50 [8] | Log AC50 [9]
3.45 |  | 9.96 |  | CN(C)CCCc1ccc(-c2ccc(Cl)cc2)cc1.Cl | 5.7 |  |  |  | 
2.1 | 4.4 | 9.32 |  | CN(C)CCCc1ccc(-c2ccc(O)cc2)cc1.Cl | 4.43 | 349 |  |  | 
2 |  | 10.8 |  | Cc1ccc(CCCN(C)C)cc1.Cl | 4.02 | 303 |  |  | 
2.99 | 5.4 | 9.88 |  | CN(C)CCCc1ccc(-c2ccccc2)cc1.Cl | 4.8 | 285 |  |  | 
2.95 | 5.4 | 9.85 |  | COc1ccc(-c2ccc(CCCN(C)C)cc2)cc1.Cl | 4.96 | 296 |  |  | 
2.45 |  | 10.6 |  | CCc1ccc(CCCN(C)C)cc1.Cl | 3.94 | 300 |  |  | 
2.17 |  |  |  | COc1ccc(-c2ccc(CCC[N+](C)(C)C)cc2)cc1 |  |  | Very low activity |  | 
3.3 |  | 9.82 |  | CCOc1ccc(-c2ccc(CCCN(C)C)cc2)cc1.Cl | 4.8 |  |  |  | 
2.62 | 4.35 | 10.3 |  | CN(C)CCCc1ccc2ccccc2c1.Cl | 4.52 | 297 |  |  | 
